Reference: ChEMBL document CHEMBL5604062, “ASAP - ZIKV NS2B-NS3 protease fluorescence dose response” (2024)
Several values for one entry are separate records, joined by “and”; a condition that tells them apart may be missing. Identical values can stand only once.

Target: Nonstructural protein 3 (Zika virus, UniProt A0A024AXB9)
Experiment: Functional biochemical assay to identify treatments for viral infectious disease that targets Zika NS2B-NS3 protease. Utilizing a direct enzyme activity measurement method, reading the fluorescence intensity is used to characterize the relative potency of inhibitors as IC50.
Set-up: species or system PRVABC59

Chain of Nonstructural protein 3 (A0A024AXB9 whole entry): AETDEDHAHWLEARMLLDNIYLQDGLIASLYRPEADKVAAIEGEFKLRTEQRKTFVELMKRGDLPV

Row | Compound | IC50
1 | CN1CCC([C@H]2CCCN(C(=O)Nc3ccc4c(c3)CNC4)C2)CC1 | > 25000 nM
2 | Cc1cc(C(=O)Nc2ccc3c(c2)CNC3)c2cnn(C)c2n1 | 5560 nM
3 | Cc1cc(NC(=O)c2cc(Cl)cc3[nH]ncc23)ccc1N1CCNCC1 | 6480 nM
4 | O=C(NC[C@H]1CCCO1)[C@H](Nc1ccc2c(c1)CNC2)c1cc(Cl)cc2[nH]ncc12 | 111 nM
5 | Cc1ccc(C)n1-c1ccc(Cl)cc1C(=O)Nc1ccc2c(c1)CNC2 | > 25000 nM
6 | Cc1cc(C(=O)Nc2ccc3c(c2)CNC3)c2cn[nH]c2c1 | 77 nM and 66 nM
7 | COc1cc(Br)cc2c1NC(=O)[C@]2(Nc1ccc2c(c1)CNC2)C(N)=O | 19900 nM
8 | N#C[C@H](Nc1ccc2c(c1)CNC2)c1cccc2[nH]ncc12 | 2610 nM
9 | N#Cc1cc(Cl)cc(C(=O)Nc2ccc3c(c2)CNC3)c1 | 276 nM
10 | Cn1cc2cc(Cl)cc(C(=O)Nc3ccc4c(c3)CNC4)c2n1 | 214 nM
11 | O=C(Nc1ccc2c(c1)CNC2)c1cc(Cl)cc2nccnc12 | 3340 nM
12 | O=C(Nc1ccc2c(c1)CNC2)N1CCC2(C1)CC(F)(F)C2 | 15700 nM
13 | Cc1ccc(S(=O)(=O)CNC(=O)[C@H](Nc2ccc3c(c2)CNC3)c2cc(Cl)cc3[nH]ncc23)cc1 | 749 nM
14 | CC(C)(C)c1ccc(Cl)cc1C(=O)Nc1ccc2c(c1)CNC2 | 2460 nM
15 | O=C(Nc1ccc2c(c1)CNC2)c1nc2ccccc2s1 | > 25000 nM
16 | Cn1nc(C2CC2)cc1C(=O)Nc1cc(CCCN)ccn1 | > 25000 nM
17 | Cc1cc(C(F)(F)F)cc(C(=O)Nc2ccc3c(c2)CNC3)n1 | > 25000 nM
18 | Cc1n[nH]c2nc(Cl)cc(C(=O)Nc3ccc4c(c3)CNC4)c12 | 3710 nM
19 | CCc1ncc(Cl)cc1C(=O)Nc1ccc2c(c1)CNC2 | 1600 nM
20 | O=C(Cc1cccc2[nH]ncc12)Nc1ccc2c(c1)CNC2 | > 25000 nM
21 | N#CCCNC(=O)[C@H](Nc1ccc2c(c1)CNC2)c1cc(Cl)cc(C2CC2)c1 | 52 nM and 37 nM
22 | O=C(Nc1ccc2c(c1)CNC2)[C@H]1CCCc2[nH]ncc21 | > 25000 nM
23 | O=C(Nc1ccc2c(c1)CNC2)c1cc(Br)cc2[nH]c([C@H]3CCOC3)nc12 | 265 nM
24 | Cc1nc(C2CC2)sc1C(=O)Nc1cc(CCCN)ccn1 | > 25000 nM
25 | CNC(=O)[C@H](Nc1ccc2c(c1)CNC2)c1cc(Cl)cc(C2CC2)c1 | 55 nM and 42 nM

Row | Compound | IC50
26 | O=C(Nc1ccc2c(c1)CNC2)c1c(Br)cc(Cl)c2[nH]ncc12 | 9140 nM
27 | O=C(Nc1ccc2c(c1)CNC2)c1cc(Cl)ccc1SC1CCCC1 | 857 nM
28 | O=C(Nc1ccc2c(c1)CNC2)C1(c2ccc(Cl)cc2)CCCC1 | > 25000 nM
29 | O=C(Nc1ccc2c(c1)CNC2)c1c(Br)ccc2[nH]ncc12 | > 25000 nM
30 | N#C[C@]1(Nc2ccc3c(c2)CNC3)C(=O)Nc2ccc(Cl)cc21 | 1540 nM
31 | N#C[C@H](Nc1ccc2c(c1)CNC2)c1cc(Cl)cc(C2CC2)c1 | 174 nM
32 | O=C(Nc1ccc2c(c1)CNC2)c1nccc2[nH]ncc12 | 6080 nM
33 | CC(C)(C)OC(=O)N1Cc2ccc(NC(=O)c3cc(Cl)cc4[nH]ncc34)cc2C1 | > 25000 nM
34 | Cn1nc(C(=O)Nc2cc(CCCN)ccn2)cc1C1CC1 | > 25000 nM
35 | O=C(Nc1ccc2c(c1)CNC2)c1cc(F)cc2[nH]nnc12 | 81 nM and 132 nM
36 | N#Cc1cc(Cl)cc([C@H](C#N)Nc2ccc3c(c2)CNC3)c1 | 433 nM
37 | Cc1cnc([C@H]2CCCN(C(=O)Nc3ccc4c(c3)CNC4)C2)s1 | > 25000 nM
38 | CC(C)c1ccc(Cl)cc1C(=O)Nc1ccc2c(c1)CNC2 | 2340 nM
39 | CCCN1C(=O)[C@](Nc2ccc3c(c2)CNC3)(C(N)=O)c2cc(Cl)ccc21 | 21000 nM
40 | Cc1c(C(=O)Nc2cc3c(cn2)OCC3)cc(C2CC2)n1C | > 25000 nM
41 | CC(C)COc1ccc(Cl)cc1C(=O)Nc1ccc2c(c1)CNC2 | 2290 nM
42 | CC1(C)CN(C(=O)Nc2ccc3c(c2)CNC3)CC(F)(F)C1 | > 25000 nM
43 | Cc1c(C(=O)Nc2cc(CCCN)ccn2)cnn1C1CC1 | > 25000 nM
44 | O=C(Nc1ccc2c(c1)CNC2)c1cc(Cl)ccc1OC1CCCC1 | 5030 nM
45 | CNC(=O)[C@]1(Nc2ccc3c(c2)CNC3)C(=O)Nc2ccc(Cl)cc21 | > 25000 nM
46 | NS(=O)(=O)c1cc(Cl)cc(C(=O)Nc2ccc3c(c2)CNC3)c1 | 1080 nM
47 | O=C(Nc1ccc2c(c1)OCCNC2)c1cc(Cl)cc2[nH]ncc12 | 1660 nM
48 | CNC(=O)[C@]1(Nc2ccc3c(c2)CNC3)CCc2ccccc21 | > 25000 nM
49 | Cn1cc(CNC(=O)[C@H](Nc2ccc3c(c2)CNC3)c2cc(Cl)cc(C3CC3)c2)cn1 | 85 nM and 65 nM
50 | O=C(Nc1ccc2c(c1)CNC2)c1cc2ccccc2[nH]1 | 24400 nM

Row | Compound | IC50
51 | CCc1cc(Cl)cc(C(=O)Nc2ccc3c(c2)CNC3)c1 | 457 nM
52 | Cn1cc2cc(C#N)cc(-c3ccc4[nH]c(C(=O)O)cc4c3)c2n1 | > 25000 nM
53 | Cn1cc(CCc2nc3c(C(=O)Nc4ccc5c(c4)CNC5)cc(Cl)cc3[nH]2)cn1 | 156 nM
54 | Cn1cnc2nc(Cl)cc(C(=O)Nc3ccc4c(c3)CNC4)c21 | 16200 nM
55 | O=C(Nc1cnc2c(c1)CNCC2)c1cc(Cl)cc2[nH]ncc12 | 366 nM
56 | C[C@H](NC(=O)c1cc(Cl)cc2[nH]ncc12)c1ccc2c(c1)CNC2 | 1280 nM
57 | O=C(Nc1ccc2c(c1)CNC2)c1cc(F)cc2[nH]ncc12 | 40 nM and 49 nM
58 | NCCCc1ccnc(NC(=O)c2cc(C3CC3)no2)c1 | > 25000 nM
59 | O=C(Nc1ccc2c(c1)CNC2)c1cc(Cl)ccc1OCC(F)(F)F | 2760 nM
60 | O=C(Nc1ccc2c(c1)CNC2)c1cc(Cl)nc2[nH]ncc12 | 1540 nM
61 | Cn1ncc2c(C(=O)Nc3ccc4c(c3)CNC4)cc(-c3cccnc3)nc21 | > 25000 nM
62 | Cc1c(C(=O)Nc2cc(CN(C)C)ccn2)cc(C2CC2)n1C | > 25000 nM
63 | O=C(Nc1ccc2c(c1)CNCCO2)c1cc(Cl)cc2[nH]ncc12 | 835 nM
64 | O=C(NC[C@H]1CCCO1)[C@H](Nc1ccc2c(c1)CNC2)c1cc(Cl)cc(C2CC2)c1 | 71 nM and 53 nM
65 | N#C[C@H](Nc1ccc2c(c1)CNC2)c1n[nH]c2cc(C(F)(F)F)ccc12 | 10300 nM
66 | O=C(Nc1ccc2c(c1)CNC2)N1CCC[C@H](CC2CCC2)C1 | > 25000 nM
67 | COC(=O)CNC(=O)[C@H](Nc1ccc2c(c1)CNC2)c1cc(Cl)cc(C2CC2)c1 | 97 nM and 73 nM
68 | CCn1ncc2c(C(=O)Nc3ccc4c(c3)CNC4)cc(C)nc21 | 4410 nM
69 | NCCCc1ccnc(NC(=O)c2cnn3c2CCC3)c1 | > 25000 nM
70 | Cc1ccc2[nH]ncc2c1C(=O)Nc1ccc2c(c1)CNC2 | > 25000 nM
71 | CCS(=O)(=O)c1ccc(Cl)cc1C(=O)Nc1ccc2c(c1)CNC2 | 2520 nM
72 | O=C(NCC1CCOCC1)[C@H](Nc1ccc2c(c1)CNC2)c1cc(Cl)cc2[nH]ncc12 | 209 nM
73 | CNC(=O)c1ccnc(NC(=O)c2cc(C3CC3)n(C)c2C)c1 | > 25000 nM
74 | O=C(Nc1ccc2c(c1)CNC2)c1ccc2scnc2c1 | 15000 nM and > 25000 nM
75 | NCc1cc(NC(=O)c2cc(Cl)cc(NC(=O)OCc3ccccc3)c2)cc(-c2ccc(OCC(=O)O)nc2)c1 | > 25000 nM

Row | Compound | IC50
76 | O=C(Nc1ccc2c[nH]nc2c1)c1cc(Cl)cc2[nH]ncc12 | > 25000 nM
77 | Cc1c(C(=O)Nc2cc([C@H]3CCOC3)ccn2)cc(C2CC2)n1C | 177 nM and 82 nM and 137 nM
78 | O=C(Nc1ccc2c(c1)CNC2)c1ccc(F)c2[nH]ncc12 | 2650 nM
79 | O=C(NCc1ccc(F)cc1)[C@H](Nc1ccc2c(c1)CNC2)c1cc(Cl)cc2[nH]ncc12 | 78 nM and 65 nM
80 | COc1ccc(CN2Cc3cc(NC(=O)c4cc(Cl)cc5[nH]ncc45)cc(Br)c3C2)cc1 | 9890 nM
81 | O=C(O)c1cc2cc(-c3cc(Cl)cc4c3O[C@H](CO)C4)ccc2[nH]1 | > 25000 nM
82 | O=C(Nc1cccc2c1CNC2)c1cc(Cl)cc2[nH]ncc12 | > 25000 nM
83 | COCCc1ccnc(NC(=O)c2cc(C3CC3)n(C)c2C)c1 | > 25000 nM
84 | O=C(Nc1ccc2c(c1)CNC2)N1C[C@H](C(F)F)C2(CC2)C1 | 24600 nM
85 | CCCN1C(=O)[C@](Nc2ccc3c(c2)CNC3)(C(=O)NC)c2ccccc21 | > 25000 nM
86 | COCCN(C)Cc1ccnc(NC(=O)c2cc(C3CC3)n(C)c2C)c1 | > 25000 nM
87 | Cc1c(C(=O)Nc2ccc3c(c2)CNC3)cc(C2CC2)n1C | 15800 nM
88 | Cc1c(C(=O)Nc2cc(CCCN)ccn2)cc(C#N)n1C | > 25000 nM
89 | O=C(Nc1ccc2c(c1)CNC2)N1CC(F)(F)CC2(CCC2)C1 | > 25000 nM
90 | CCn1c(C)cc(C(=O)Nc2cc(CCCN)ccn2)c1C | > 25000 nM
91 | NCCCc1ccnc(NC(=O)c2nnc(C3CC3)s2)c1 | > 25000 nM
92 | Cc1ccc(C(=O)Nc2ccc3c(c2)CNC3)c2[nH]ncc12 | 3390 nM
93 | N#C[C@H](Nc1ccc2c(c1)CNC2)c1cccc2c1CCNC2=O | 22400 nM
94 | Cc1c(C(=O)Nc2ncc3c(c2C#N)CCOC3)cc(C2CC2)n1C | > 25000 nM
95 | CC1([C@H]2CCCN(C(=O)Nc3ccc4c(c3)CNC4)C2)CC1 | > 25000 nM
96 | O=C(Nc1ccc2c(c1)CNC2)c1cc(Cl)ccc1-n1ccnc1 | 3540 nM
97 | CCCN1C(=O)[C@](Nc2ccc3c(c2)CNC3)(C(=O)NC)c2cc(Cl)ccc21 | > 25000 nM
98 | N#C[C@H](Nc1ccc2c(c1)CNC2)c1cc(Cl)cc2c1OCC2 | 2440 nM
